ChEMBL document CHEMBL1201862, “PubChem BioAssay data set” (2004)
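Grown in 96-well plates, cells were treated for 48 hours with each compound at five concentrations. Insufficient inhibition: endpoint recorded as highest concentration tested. Here, GI50 denotes the concentration required for 50% inhibition of growth.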 Calls of active or inactive are those of the source. No stated cut-off is given here; in the data, active = GI50 up to about 1.1 µM and inactive = higher.

Columns and labels:
Experiment in all cases: DTP human tumour cell line panel, 48 h
A549 = tested on: A549
DLD-1 = tested on: DLD-1
DMS-273 = tested on: DMS-273
DU-145 = tested on: DU-145
HCC 2998 = tested on: HCC 2998
HCT-15 = tested on: HCT-15
HOP-18 = tested on: HOP-18
HOP-92 = tested on: HOP-92
Hs-578T = tested on: Hs-578T
KM-20L2 = tested on: KM-20L2
LXFL 529 = tested on: LXFL 529
MDA-MB-435 = tested on: MDA-MB-435
NCI-H226 = tested on: NCI-H226
NCI-H460 = tested on: NCI-H460
NCI-H522 = tested on: NCI-H522
OVCAR-5 = tested on: OVCAR-5
SF-539 = tested on: SF-539
SK-MEL-2 = tested on: SK-MEL-2
SNB-75 = tested on: SNB-75
SNB-78 = tested on: SNB-78
T47D = tested on: T47D
XF498 = tested on: XF498
786-0 = tested on: 786-0
A498 = tested on: A498
ACHN = tested on: ACHN
EKVX = tested on: EKVX
HCT-116 = tested on: HCT-116
HOP-62 = tested on: HOP-62
HT-29 = tested on: HT-29
KM12 = tested on: KM12
LOX IMVI = tested on: LOX IMVI
M14 = tested on: M14
Malme-3M = tested on: Malme-3M
NCI-H23 = tested on: NCI-H23
OVCAR-3 = tested on: OVCAR-3
OVCAR-4 = tested on: OVCAR-4
OVCAR-8 = tested on: OVCAR-8
SF-295 = tested on: SF-295
SK-MEL-28 = tested on: SK-MEL-28
SK-MEL-5 = tested on: SK-MEL-5
SN12C = tested on: SN12C
SNB-19 = tested on: SNB-19
SR = tested on: SR
SW-620 = tested on: SW-620
UACC-257 = tested on: UACC-257
UACC-62 = tested on: UACC-62
UO-31 = tested on: UO-31
CAKI-1 = tested on: CAKI-1
CCRF-CEM = tested on: CCRF-CEM
COLO 205 = tested on: COLO 205
IGROV-1 = tested on: IGROV-1
K562 = tested on: K562
M19-MEL = tested on: M19-MEL
MOLT-4 = tested on: MOLT-4
RPMI-8226 = tested on: RPMI-8226
RXF 393 = tested on: RXF 393
SF-268 = tested on: SF-268
SK-OV-3 = tested on: SK-OV-3
TK-10 = tested on: TK-10
U-251 = tested on: U-251
HL-60 = tested on: HL-60

O=C1C(Cl)=C(N2CCN(CCOCCO)CC2)C(=O)c2c(O)ccc(O)c21
GI50 (A549): 2.71 µM (inactive) | GI50 (DLD-1): 0.195 µM (active) | GI50 (DMS-273): 1.05 µM (active) | GI50 (DU-145): 1.85 µM (inactive) | GI50 (HCC 2998): 1.93 µM (inactive) | GI50 (HCT-15): 0.292 µM | GI50 (HOP-18): 1.38 µM (inactive) | GI50 (HOP-92): 0.231 µM (active) | GI50 (Hs-578T): 2.64 µM (inactive) | GI50 (KM-20L2): 0.716 µM (active) | GI50 (LXFL 529): 0.224 µM (active) | GI50 (MDA-MB-435): 0.295 µM (active) | GI50 (NCI-H226): 1.99 µM (inactive) | GI50 (NCI-H460): 3.1 µM (inactive) | GI50 (NCI-H522): 0.174 µM (active) | GI50 (OVCAR-5): 1.79 µM (inactive) | GI50 (SF-539): 1.3 µM (inactive) | GI50 (SK-MEL-2): 0.404 µM (active) | GI50 (SNB-75): 1.41 µM (inactive) | GI50 (SNB-78): 0.363 µM (active) | GI50 (T47D): 0.438 µM (active) | GI50 (XF498): 0.557 µM (active)

O=C1C(CN2CCCCC2)CCCC1CN1CCCCC1 (configuration not stated)
GI50 (786-0): 7.29 µM (inactive) | GI50 (A498): > 100 µM (inactive) | GI50 (A549): > 100 µM (inactive) | GI50 (ACHN): 19.6 µM (inactive) | GI50 (DLD-1): 15.9 µM (inactive) | GI50 (DMS-273): 29.6 µM (inactive) | GI50 (EKVX): 19.9 µM (inactive) | GI50 (HCC 2998): > 100 µM (inactive) | GI50 (HCT-116): 14.5 µM (inactive) | GI50 (HCT-15): 14.2 µM | GI50 (HOP-18): 14.7 µM (inactive) | GI50 (HOP-62): > 100 µM (inactive) | GI50 (HT-29): 18.8 µM (inactive) | GI50 (KM-20L2): 13.3 µM (inactive) | GI50 (KM12): > 60.3 µM (inactive) | GI50 (LOX IMVI): 25.5 µM (inactive) | GI50 (LXFL 529): 15.6 µM (inactive) | GI50 (M14): 32.3 µM (inactive) | GI50 (Malme-3M): 5.82 µM (inactive) | GI50 (NCI-H226): > 100 µM (inactive) | GI50 (NCI-H23): > 45.1 µM (inactive) | GI50 (OVCAR-3): 17.1 µM (inactive) | GI50 (OVCAR-4): > 10 µM (inactive) | GI50 (OVCAR-5): > 59 µM (inactive) | GI50 (OVCAR-8): 14.9 µM (inactive) | GI50 (SF-295): > 100 µM (inactive) | GI50 (SF-539): > 43.2 µM (inactive) | GI50 (SK-MEL-28): 13.7 µM (inactive) | GI50 (SK-MEL-5): > 31.6 µM (inactive) | GI50 (SN12C): 26.2 µM (inactive) | GI50 (SNB-19): > 100 µM (inactive) | GI50 (SNB-78): 22.8 µM (inactive) | GI50 (SR): 8.93 µM (inactive) | GI50 (SW-620): 9.89 µM (inactive) | GI50 (UACC-257): 24.9 µM (inactive) | GI50 (UACC-62): > 40.6 µM (inactive) | GI50 (UO-31): > 42.2 µM (inactive) | GI50 (XF498): 18.4 µM (inactive)

O=C(CCc1ccccc1)CC1OC(=O)C(Cl)=C1Cl (configuration not stated)
GI50 (786-0): 19.1 µM (inactive) | GI50 (A498): 34 µM (inactive) | GI50 (A549): 43.4 µM (inactive) | GI50 (ACHN): 20.5 µM (inactive) | GI50 (CAKI-1): 29.5 µM (inactive) | GI50 (CCRF-CEM): 29.6 µM (inactive) | GI50 (COLO 205): 17.2 µM (inactive) | GI50 (DLD-1): 18 µM (inactive) | GI50 (DMS-273): 22.3 µM (inactive) | GI50 (EKVX): 38.9 µM (inactive) | GI50 (HCC 2998): 18.6 µM (inactive) | GI50 (HCT-116): 14.8 µM (inactive) | GI50 (HCT-15): 16 µM | GI50 (HOP-18): 23.3 µM (inactive) | GI50 (HOP-62): 26.2 µM (inactive) | GI50 (HOP-92): 23.9 µM (inactive) | GI50 (HT-29): 19.2 µM (inactive) | GI50 (IGROV-1): 22.2 µM (inactive) | GI50 (K562): 35 µM (inactive) | GI50 (KM-20L2): 13.2 µM (inactive) | GI50 (KM12): 17.5 µM (inactive) | GI50 (LOX IMVI): 18.6 µM (inactive) | GI50 (LXFL 529): 15.8 µM (inactive) | GI50 (M14): 16.5 µM (inactive) | GI50 (M19-MEL): 17.7 µM (inactive) | GI50 (MOLT-4): 33 µM (inactive) | GI50 (Malme-3M): 18.2 µM (inactive) | GI50 (NCI-H23): 19.1 µM (inactive) | GI50 (NCI-H460): 33.5 µM (inactive) | GI50 (NCI-H522): 14.5 µM (inactive) | GI50 (OVCAR-3): 20.3 µM (inactive) | GI50 (OVCAR-4): 96.4 µM (inactive) | GI50 (OVCAR-5): 20 µM (inactive) | GI50 (OVCAR-8): 20 µM (inactive) | GI50 (RPMI-8226): 32.6 µM (inactive) | GI50 (RXF 393): 29.5 µM (inactive) | GI50 (SF-268): 27.5 µM (inactive) | GI50 (SF-295): 27.4 µM (inactive) | GI50 (SF-539): 31 µM (inactive) | GI50 (SK-MEL-28): 16.9 µM (inactive) | GI50 (SK-MEL-2): 19.1 µM (inactive) | GI50 (SK-MEL-5): 20.8 µM (inactive) | GI50 (SK-OV-3): 45.6 µM (inactive) | GI50 (SN12C): 18.5 µM (inactive) | GI50 (SNB-19): 20.9 µM (inactive) | GI50 (SNB-75): 53.6 µM (inactive) | GI50 (SNB-78): 46.5 µM (inactive) | GI50 (SR): 30.5 µM (inactive) | GI50 (SW-620): 12.1 µM (inactive) | GI50 (TK-10): 33.4 µM (inactive) | GI50 (U-251): 16.4 µM (inactive) | GI50 (UACC-257): 21.3 µM (inactive) | GI50 (UACC-62): 17 µM (inactive) | GI50 (UO-31): 19.3 µM (inactive) | GI50 (XF498): 25.7 µM (inactive)

CN1Cc2cc3c(cc2-c2ccccc21)OCO3
GI50 (786-0): > 100 µM (inactive) | GI50 (A498): > 100 µM (inactive) | GI50 (A549): > 100 µM (inactive) | GI50 (ACHN): > 100 µM (inactive) | GI50 (CCRF-CEM): > 100 µM (inactive) | GI50 (COLO 205): > 100 µM (inactive) | GI50 (DLD-1): > 100 µM (inactive) | GI50 (DMS-273): > 100 µM (inactive) | GI50 (EKVX): > 100 µM (inactive) | GI50 (HCC 2998): > 100 µM (inactive) | GI50 (HCT-116): > 100 µM (inactive) | GI50 (HL-60): > 100 µM (inactive) | GI50 (HOP-18): > 100 µM (inactive) | GI50 (HOP-92): > 100 µM (inactive) | GI50 (HT-29): > 100 µM (inactive) | GI50 (IGROV-1): > 100 µM (inactive) | GI50 (K562): > 100 µM (inactive) | GI50 (KM-20L2): 91.6 µM (inactive) | GI50 (KM12): > 100 µM (inactive) | GI50 (LOX IMVI): > 100 µM (inactive) | GI50 (LXFL 529): > 100 µM (inactive) | GI50 (M14): > 100 µM (inactive) | GI50 (M19-MEL): > 100 µM (inactive) | GI50 (MOLT-4): > 100 µM (inactive) | GI50 (NCI-H23): > 100 µM (inactive) | GI50 (NCI-H460): > 100 µM (inactive) | GI50 (NCI-H522): > 100 µM (inactive) | GI50 (OVCAR-3): > 100 µM (inactive) | GI50 (OVCAR-4): > 100 µM (inactive) | GI50 (OVCAR-5): > 100 µM (inactive) | GI50 (OVCAR-8): > 100 µM (inactive) | GI50 (RPMI-8226): > 100 µM (inactive) | GI50 (RXF 393): > 100 µM (inactive) | GI50 (SF-268): > 100 µM (inactive) | GI50 (SF-295): > 100 µM (inactive) | GI50 (SF-539): > 100 µM (inactive) | GI50 (SK-MEL-28): > 100 µM (inactive) | GI50 (SK-MEL-2): > 100 µM (inactive) | GI50 (SK-MEL-5): > 100 µM (inactive) | GI50 (SK-OV-3): > 10 µM (inactive) | GI50 (SN12C): > 100 µM (inactive) | GI50 (SNB-19): > 100 µM (inactive) | GI50 (SNB-75): > 100 µM (inactive) | GI50 (SNB-78): > 100 µM (inactive) | GI50 (SR): > 100 µM (inactive) | GI50 (SW-620): > 100 µM (inactive) | GI50 (TK-10): > 100 µM (inactive) | GI50 (U-251): > 100 µM (inactive) | GI50 (UACC-257): > 100 µM (inactive) | GI50 (UACC-62): > 100 µM (inactive) | GI50 (UO-31): > 100 µM (inactive) | GI50 (XF498): > 100 µM (inactive)
